Assay type in all cases: biochemical
One test has as its target HDAC1 (Homo sapiens, UniProt Q13547). The experiment in a line: HDAC1 enzyme activity inhibition IC50 evaluation experiment. Conditions: HDAC1 10 nM, acetylated peptide 8 μM, trypsin, fluorescence. How it is done:
Effect Example 2 HDAC1, HDAC2, HDAC3, HDAC6 enzyme activity inhibition IC50 evaluation experiment
Buffer solution (50 mM Tris 7.5, 0.01% Tween-20, 50 mM NaCl) was prepared according to the kit instructions, and the enzyme solution and substrate solution (acetylated peptide with the addition of trypsin) were prepared using the buffer solution. The test compound samples were dissolved with DMSO and added to the screening system at a certain starting concentration such as 10 μM, 3-fold dilution, while setting up a DMSO control and no-enzyme control. The enzyme reaction system includes: buffer, enzyme [final concentration: HDAC1=10 nM, HDAC2=4 nM, HDAC3=7 nM, HDAC6=5 nM], substrate (acetylated peptide) [final concentration: Peptide(HDAC1)=8 μM, Peptide(HDAC2)=10 μM, Peptide(HDAC3)=5 μM, Peptide(HDAC6)=11 μM], trypsin [final concentration: Trypsin(HDAC1,2,3)=0.05 μM, Trypsin(HDAC6)=0.1 μM], etc. The enzymes and compounds were reacted at room temperature for 15 min. After adding the substrate and Trypsin, centrifugation was performed for 1 min, and the fluorescence signal data (excitation wavelength 355 nM/emission wavelength 460 nm) was read continuously for 60 min using Envision, and the linear reaction segment was selected to obtain the slope and thus calculate the inhibition rate at that concentration. The IC50 value was obtained by fitting the curve using the formula Y=Bottom+(Top-Bottom)/(1+(IC50/X)^HillSlope).

The target of another test is PI3Kβ (Homo sapiens, UniProt P42338). The experiment in a line: PI3Kβ enzyme activity inhibition IC50 evaluation assay (ADP-Glo Kinase Assay). To be noted: ATP 25 μM, PIP2 50 μg/mL, 1 hour room temperature, read-out: PI3K-β IC50. How it is done: (§1) Effec Example 1 IC50 evaluation assay for PI3Kα, PI3Kδ, PI3Kβ and PI3Kγ enzyme activity inhibition
(§2) The experiment was performed using the ADP-Glo Kinase Assay kit, following the instructions. The following buffer solutions were prepared: 50 mM HEPES, pH 7.5, 3 mM MgCl2, 1 mM EGTA, 100 mM NaCl, 0.03% CHAPS, 2 mM DTT. The test compound samples were dissolved in DMSO and added to the screening system at a certain starting concentration such as 10 μM, 3-fold dilution, while setting up both DMSO control and no kinase control. The optimal concentrations of PI3Kα, PI3Kδ, PI3Kβ and PI3Kγ enzymes, substrate (PIP2) and ATP were prepared in buffer. The enzyme reaction system included: buffer, ATP 25 μM, kinase substrate (PIP2, 50 μg/mL), kinases [PI3Kα (0.15 μg/mL), PI3Kδ (1.2 μg/mL), PI3Kβ (0.3 μg/mL) and PI3Kγ (2.5 μg/mL)], etc. The reaction system was reacted at room temperature for 1 hour. The reaction was terminated by adding a termination reagent (ADP-Glo reagent, 5 μL), and the ADP content in the system was detected using a detection reagent (Kinase Detection Reagent, 10 μL). Signal data were collected using the Envision instrument. Calculate the percentage of (%) inhibition according to the following formula: % inhibition=(DMSO control signal value−sample signal value)/(DMSO control signal value−no-kinase control signal value). The IC50 value was obtained by fitting the curve using the formula Y=Bottom+(Top-Bottom)/(1+(IC50/X)^HillSlope).
On the technique in general: ADP-Glo first removes unused ATP, then detects ADP through luciferase.

A further test has as its target T1, HDAC10 (Homo sapiens, UniProt Q969S8).
T1 sequence (Q969S8 1-669): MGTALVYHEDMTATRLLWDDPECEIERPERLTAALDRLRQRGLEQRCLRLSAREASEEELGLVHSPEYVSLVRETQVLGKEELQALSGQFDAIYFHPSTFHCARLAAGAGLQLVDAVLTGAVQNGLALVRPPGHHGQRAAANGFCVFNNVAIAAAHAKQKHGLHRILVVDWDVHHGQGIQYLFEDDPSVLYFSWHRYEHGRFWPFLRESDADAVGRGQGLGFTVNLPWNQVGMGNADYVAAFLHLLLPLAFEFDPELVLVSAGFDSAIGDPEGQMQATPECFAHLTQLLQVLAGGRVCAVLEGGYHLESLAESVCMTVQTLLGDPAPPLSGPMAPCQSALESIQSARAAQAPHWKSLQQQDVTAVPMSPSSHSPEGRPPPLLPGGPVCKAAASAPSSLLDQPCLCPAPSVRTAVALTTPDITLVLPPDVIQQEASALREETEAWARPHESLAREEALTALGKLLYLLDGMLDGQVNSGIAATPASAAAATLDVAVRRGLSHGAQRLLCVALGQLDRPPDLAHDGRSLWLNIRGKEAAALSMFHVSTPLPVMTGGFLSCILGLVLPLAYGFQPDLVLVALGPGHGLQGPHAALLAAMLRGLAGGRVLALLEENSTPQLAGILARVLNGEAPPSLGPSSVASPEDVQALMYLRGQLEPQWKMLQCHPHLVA
Nature of the test: HDAC10 enzyme activity inhibition IC50 evaluation experiment. Conditions: HDAC10 10 nM, acetylated peptide 4 μM, 240 min, fluorescence. As for the experimental part: Effect Example 3 HDAC8, HDAC10 enzyme activity inhibition IC50 evaluation experiment
Prepare buffer solution (HDAC8: 50 mM Tris 8.0, 2.7 mM KCl, 137 mM NaCl, 1 mM MgCl2, 1 mg/mL BSA; HDAC10: 50 mM Tris 7.5, 0.01% Tween-20, 50 mM NaCl, 0.05 mg/mL BSA) according to the kit instructions, prepared Enzyme solution, substrate solution (acetylated peptide) by using buffer. The test compound samples were dissolved in DMSO and was added to the screening system at a certain starting concentration such as 10 μM, 3-fold dilution, while setting up the DMSO control and the no-enzyme control. The enzyme reaction system includes: buffer, enzyme [final concentration: HDAC8=10 nM, HDAC10=10 nM], substrate (acetylated peptide) [final concentration: Peptide(HDAC8)=20 μM, Peptide(HDAC10)=4 μM], etc. The enzymes and compounds were reacted at room temperature for 15 minutes. After adding the substrate peptide the reaction system was reacted at room temperature for 240 min. Trypsin solution was added [final concentration: Trypsin=50p M] and incubation continued for 120 min. The fluorescence signal data (excitation wavelength 355 nM/emission wavelength 460 nm) was read with Envision instrument. Calculate the inhibition rate at this concentration based on the relative fluorescence units (RFU). The IC50 value was obtained by fitting a curve using the formula Y=Bottom+(Top-Bottom)/(1+(IC50/X)^HillSlope).

The next test has as its target PI3Kγ (Homo sapiens, UniProt P48736). Nature of the test: PI3Kγ enzyme activity inhibition IC50 evaluation assay (ADP-Glo Kinase Assay). Conditions: ATP 25 μM, PIP2 50 μg/mL, 1 hour room temperature, read-out: PI3K-γ IC50. As for the experimental part:
as §1, §2

For a further test, the target named is PI3Kα (Homo sapiens, UniProt P42336). The experiment in a line: PI3Kα enzyme activity inhibition IC50 evaluation assay (ADP-Glo Kinase Assay). Conditions: ATP 25 μM, PIP2 50 μg/mL, 1 hour room temperature, read-out: PI3K-α IC50. How it is done:
as §1, §2

What is called IC50 is the concentration that gives 50% inhibition.

A value given as a limit tells only on which side of the number the result lay.

Sequence of PI3Kα (P42336 whole entry, species assumed): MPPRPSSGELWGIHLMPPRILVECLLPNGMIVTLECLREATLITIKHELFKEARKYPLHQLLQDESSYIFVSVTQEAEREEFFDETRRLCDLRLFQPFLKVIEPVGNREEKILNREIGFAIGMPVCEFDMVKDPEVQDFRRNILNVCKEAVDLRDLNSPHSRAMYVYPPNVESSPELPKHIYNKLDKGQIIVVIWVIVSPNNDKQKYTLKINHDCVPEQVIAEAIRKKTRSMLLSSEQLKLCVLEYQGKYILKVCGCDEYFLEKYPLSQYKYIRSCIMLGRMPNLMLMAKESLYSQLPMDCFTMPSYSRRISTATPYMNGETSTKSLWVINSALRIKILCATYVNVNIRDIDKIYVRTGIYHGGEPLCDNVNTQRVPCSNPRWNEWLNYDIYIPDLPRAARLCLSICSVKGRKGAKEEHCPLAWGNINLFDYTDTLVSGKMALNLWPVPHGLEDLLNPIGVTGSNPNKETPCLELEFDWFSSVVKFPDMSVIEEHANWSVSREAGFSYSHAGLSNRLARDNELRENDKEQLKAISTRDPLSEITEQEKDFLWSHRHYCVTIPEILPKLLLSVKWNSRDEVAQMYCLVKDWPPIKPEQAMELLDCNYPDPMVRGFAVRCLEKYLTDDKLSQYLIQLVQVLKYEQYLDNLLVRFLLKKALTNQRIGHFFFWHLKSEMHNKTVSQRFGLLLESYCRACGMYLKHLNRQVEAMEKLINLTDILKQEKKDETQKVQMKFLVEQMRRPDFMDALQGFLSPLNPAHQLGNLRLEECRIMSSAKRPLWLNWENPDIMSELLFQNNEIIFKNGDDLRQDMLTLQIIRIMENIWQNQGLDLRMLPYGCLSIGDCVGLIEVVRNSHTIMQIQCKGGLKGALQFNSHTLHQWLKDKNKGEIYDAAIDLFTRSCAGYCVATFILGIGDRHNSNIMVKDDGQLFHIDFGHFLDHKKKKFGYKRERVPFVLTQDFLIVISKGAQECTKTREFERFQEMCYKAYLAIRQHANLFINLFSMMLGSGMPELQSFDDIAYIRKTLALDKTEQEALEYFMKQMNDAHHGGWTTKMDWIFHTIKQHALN
Sequence of PI3Kα (P27986 whole entry partner, species assumed): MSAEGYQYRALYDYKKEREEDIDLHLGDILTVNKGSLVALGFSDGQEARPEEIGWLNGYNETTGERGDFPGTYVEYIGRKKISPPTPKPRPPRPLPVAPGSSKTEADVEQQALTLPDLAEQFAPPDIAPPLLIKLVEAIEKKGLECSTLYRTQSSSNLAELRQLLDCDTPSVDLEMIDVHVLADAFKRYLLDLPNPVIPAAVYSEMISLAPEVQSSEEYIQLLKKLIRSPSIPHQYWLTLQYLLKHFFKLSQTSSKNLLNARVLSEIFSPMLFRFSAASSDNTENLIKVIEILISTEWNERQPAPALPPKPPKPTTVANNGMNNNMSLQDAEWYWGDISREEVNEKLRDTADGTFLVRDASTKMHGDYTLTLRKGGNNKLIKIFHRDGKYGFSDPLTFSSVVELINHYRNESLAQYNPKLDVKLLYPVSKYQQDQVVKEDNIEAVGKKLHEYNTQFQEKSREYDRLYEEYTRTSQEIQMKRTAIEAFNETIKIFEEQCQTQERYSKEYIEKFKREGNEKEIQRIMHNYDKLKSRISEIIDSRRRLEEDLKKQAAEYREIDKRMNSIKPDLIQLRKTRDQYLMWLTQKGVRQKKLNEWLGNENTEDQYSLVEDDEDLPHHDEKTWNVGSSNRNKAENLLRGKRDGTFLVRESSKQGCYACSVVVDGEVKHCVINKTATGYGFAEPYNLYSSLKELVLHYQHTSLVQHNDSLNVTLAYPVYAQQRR
Sequence of HDAC1 (Q13547 whole entry, species assumed): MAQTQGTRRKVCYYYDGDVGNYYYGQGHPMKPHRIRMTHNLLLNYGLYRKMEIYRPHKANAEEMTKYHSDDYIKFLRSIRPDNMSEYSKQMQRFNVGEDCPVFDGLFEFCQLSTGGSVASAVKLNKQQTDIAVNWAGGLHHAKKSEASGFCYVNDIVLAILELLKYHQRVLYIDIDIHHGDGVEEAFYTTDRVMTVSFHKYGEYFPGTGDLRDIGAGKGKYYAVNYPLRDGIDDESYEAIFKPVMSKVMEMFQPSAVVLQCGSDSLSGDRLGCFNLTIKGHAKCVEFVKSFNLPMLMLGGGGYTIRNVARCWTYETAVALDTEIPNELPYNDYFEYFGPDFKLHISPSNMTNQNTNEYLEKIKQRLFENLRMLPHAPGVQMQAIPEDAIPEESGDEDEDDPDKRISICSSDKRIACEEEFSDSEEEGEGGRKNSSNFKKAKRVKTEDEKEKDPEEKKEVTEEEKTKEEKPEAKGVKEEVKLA
Sequence of PI3Kγ (P48736 whole entry, species assumed): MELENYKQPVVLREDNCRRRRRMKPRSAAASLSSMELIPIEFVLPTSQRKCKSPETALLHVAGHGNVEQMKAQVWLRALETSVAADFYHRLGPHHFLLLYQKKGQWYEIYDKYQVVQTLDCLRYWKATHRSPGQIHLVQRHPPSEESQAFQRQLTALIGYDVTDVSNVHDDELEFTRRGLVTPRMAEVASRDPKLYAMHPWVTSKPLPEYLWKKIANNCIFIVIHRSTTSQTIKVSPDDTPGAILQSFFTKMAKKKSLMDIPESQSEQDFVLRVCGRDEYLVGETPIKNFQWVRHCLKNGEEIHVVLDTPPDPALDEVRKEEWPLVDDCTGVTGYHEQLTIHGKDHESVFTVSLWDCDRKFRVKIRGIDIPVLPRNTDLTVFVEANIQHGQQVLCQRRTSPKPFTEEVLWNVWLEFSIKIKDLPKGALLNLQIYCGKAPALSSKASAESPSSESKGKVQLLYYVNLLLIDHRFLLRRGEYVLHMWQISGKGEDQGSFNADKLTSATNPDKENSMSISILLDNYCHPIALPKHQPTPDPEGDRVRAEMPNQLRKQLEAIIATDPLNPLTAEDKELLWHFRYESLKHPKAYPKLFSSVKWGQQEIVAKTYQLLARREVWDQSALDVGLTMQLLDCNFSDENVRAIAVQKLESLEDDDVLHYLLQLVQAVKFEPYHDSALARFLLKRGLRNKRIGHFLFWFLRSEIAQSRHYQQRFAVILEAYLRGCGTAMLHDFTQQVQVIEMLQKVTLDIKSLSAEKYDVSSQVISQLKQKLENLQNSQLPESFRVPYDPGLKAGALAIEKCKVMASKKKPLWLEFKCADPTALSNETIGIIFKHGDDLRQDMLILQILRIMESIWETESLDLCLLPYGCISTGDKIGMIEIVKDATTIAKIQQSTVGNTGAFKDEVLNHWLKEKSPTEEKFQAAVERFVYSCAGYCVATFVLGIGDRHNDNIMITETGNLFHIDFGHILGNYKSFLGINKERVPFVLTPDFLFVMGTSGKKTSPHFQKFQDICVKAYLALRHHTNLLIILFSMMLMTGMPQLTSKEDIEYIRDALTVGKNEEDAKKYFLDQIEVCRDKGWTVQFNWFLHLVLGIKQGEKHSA
Sequence of PI3Kβ (P42338 whole entry, species assumed): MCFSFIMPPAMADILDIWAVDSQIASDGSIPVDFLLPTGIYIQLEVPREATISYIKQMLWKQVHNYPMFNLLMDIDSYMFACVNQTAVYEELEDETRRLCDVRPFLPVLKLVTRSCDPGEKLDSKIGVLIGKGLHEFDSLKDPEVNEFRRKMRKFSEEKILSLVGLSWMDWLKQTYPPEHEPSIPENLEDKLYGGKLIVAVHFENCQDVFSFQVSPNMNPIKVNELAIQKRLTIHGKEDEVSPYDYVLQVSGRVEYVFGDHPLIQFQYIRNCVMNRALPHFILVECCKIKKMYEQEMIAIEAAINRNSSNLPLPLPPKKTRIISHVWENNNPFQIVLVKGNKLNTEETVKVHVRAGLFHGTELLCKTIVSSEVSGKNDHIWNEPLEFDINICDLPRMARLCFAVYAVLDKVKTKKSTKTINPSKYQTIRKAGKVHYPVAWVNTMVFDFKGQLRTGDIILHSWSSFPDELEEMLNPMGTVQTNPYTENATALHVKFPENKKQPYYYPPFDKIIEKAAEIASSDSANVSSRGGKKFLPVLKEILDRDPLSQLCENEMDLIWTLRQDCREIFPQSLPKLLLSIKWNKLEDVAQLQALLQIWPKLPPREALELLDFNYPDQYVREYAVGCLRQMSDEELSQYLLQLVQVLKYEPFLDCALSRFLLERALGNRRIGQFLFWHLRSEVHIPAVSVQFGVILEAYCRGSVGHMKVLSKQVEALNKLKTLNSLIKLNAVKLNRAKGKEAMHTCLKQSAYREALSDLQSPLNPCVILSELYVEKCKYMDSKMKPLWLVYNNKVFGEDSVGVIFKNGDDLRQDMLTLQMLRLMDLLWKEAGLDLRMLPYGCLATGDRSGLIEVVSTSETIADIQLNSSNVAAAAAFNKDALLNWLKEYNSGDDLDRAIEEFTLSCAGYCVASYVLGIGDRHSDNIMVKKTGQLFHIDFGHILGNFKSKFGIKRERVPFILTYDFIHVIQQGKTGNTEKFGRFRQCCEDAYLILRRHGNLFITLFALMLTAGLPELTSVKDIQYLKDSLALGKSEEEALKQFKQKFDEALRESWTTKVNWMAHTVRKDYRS
Sequence of PI3Kβ (P27986 whole entry partner, species assumed): as the sequence (P27986 whole entry partner, species assumed) above

Take `COc1ncc(-c2nc(N3CCOCC3)nc3c(OC4CCN(c5ccc(C(=O)NO)cn5)CC4)cc(F)cc23)cc1NS(C)(=O)=O` [Compound 40]: the IC50 on HDAC1 was 10 to 100 nM.
As for `COc1ncc(-c2nc(N3CCOCC3)nc3c(OC4CCN(c5ncc(C(=O)NO)cc5F)CC4)cc(F)cc23)cc1NS(C)(=O)=O` [Compound 30], the IC50 on PI3Kβ was in the range of 1000 to 10000 nM; against HDAC10, 100 to 1000 nM; at PI3Kγ it was 1000 to 10000 nM; at HDAC1, 100 to 1000 nM; on PI3Kα, 100 to 1000 nM.
Regarding `COc1ncc(-c2nc(N3CCOCC3)nc3c(CN4CCN(c5ncc(C(=O)NO)cn5)CC4)cc(F)cc23)cc1NS(C)(=O)=O` [Compound 7], the IC50 is 100 to 1000 nM at PI3Kβ; 100 to 1000 nM against HDAC10; 1000 to 10000 nM at PI3Kγ; 10 to 100 nM against HDAC1; 100 to 1000 nM at PI3Kα.
Turning to `COc1ncc(-c2nc(N3CCOCC3)nc3c(OC4CCN(c5ncc(C(=O)NO)cn5)CC4)cc(F)cc23)cc1NS(C)(=O)=O` [Compound 39], the 50% inhibitory concentration (IC50) on HDAC10 is 10 to 100 nM; against HDAC1 it was at most 10 nM.
On to `COc1ncc(-c2nc(N3CCOCC3)nc3c(OCCCCCCC(=O)NO)cc(F)cc23)cc1NS(C)(=O)=O` [Compound 9], for which the 50% inhibitory concentration (IC50) was 100 to 1000 nM against HDAC10, at most 10 nM on HDAC1 and 1000 to 10000 nM on PI3Kα.

These data come from patent US20240217947A1, “Morpholinylquinazoline Compound, Pharmaceutical compositions thereof and Use Thereof” (SHANGHAI YINGLI PHARMACEUTICAL CO., LTD, priority 2022, published 2024).
